What was measured:
Aβ42 = Aβ42 (Homo sapiens, UniProt P05067); conditions: shown previously (35, 36); cited from earlier work
[1] = target: T1, Aβ42-linker-GFP fusion protein (Homo sapiens, UniProt P05067); assay: Cell-free Aβ42-linker-GFP fluorescence assay; format: biochemical; conditions: 10 μM, cell-free system
T1 construct: Wild-type Aβ42-linker-GFP was expressed in the absence (gray) or presence (black) of 10 μM tannic acid; host or cells: cell-free E. coli T7 S30 extract system for circular DNA
Experimental: In one embodiment, the assay uses a vector encoding Aβ42-linker-GFP in a cell-free in vitro transcription and translation system. For example, the basic protocol of the cell-free assay can involve the following steps: 1) Culture 500 ml to 1L of E. coli X1Blue strain harboring Aβ-linker-GFP fusion vector until the density of the suspension reaches O.D 0.9; 2) At O.D 0.9, spin down the cells at 4,000 g for 15 min; 3) Extract the vector using the Qiagen plasmid mega kit. (Cat. No. 12183); 4) After extraction, remove contaminants using phenol extraction; 5) Add E. coli T7 S30 extract system for circular DNA (Promega, Cat. No. L1130) into each well of a 96-well plate; 6) Add control or test substances (e.g. putative drug molecules or vectors that express inhibitory polypeptide) to each well; 7) Add Aβ-linker-GFP fusion vector, and express at RT or at 37 ° C. for 3 hrs; and 8) Measure the fluorescence emission at 510 nm (using an excitation at 490 nm). One of skill in the art will recognize that other transcription/translation systems, or a modified system, can be used. Likewise, the details of the protocol can be varied and optimized to accommodate other amyloidogenic proteins, to enhance the relative fluorescence, to accommodate the needs of the assayist, or a combination thereof.
FIG. 8 illustrates the inhibition of fluorescence of Aβ42-linker-GFP in a cell free system. […]

Aβ = conditions: cited from earlier work

Aβ42, sequence (P05067 672-713 limits assumed, species assumed): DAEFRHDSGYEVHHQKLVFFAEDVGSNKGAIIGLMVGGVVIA
T1 sequence (P05067 with tags, fused parts or gaps): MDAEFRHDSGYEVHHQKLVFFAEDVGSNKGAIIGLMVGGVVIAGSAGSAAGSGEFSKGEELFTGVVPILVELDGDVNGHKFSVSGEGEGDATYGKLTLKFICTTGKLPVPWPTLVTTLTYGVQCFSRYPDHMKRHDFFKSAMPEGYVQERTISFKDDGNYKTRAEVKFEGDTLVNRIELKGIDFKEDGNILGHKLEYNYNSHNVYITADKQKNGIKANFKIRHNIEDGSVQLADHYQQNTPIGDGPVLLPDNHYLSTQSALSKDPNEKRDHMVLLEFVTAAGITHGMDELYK

Row | fluorescence of wild-type Aβ42-linker-GFP / inhibition of aggregation [1] | SMILES | inhibition of Aβ42 aggregation (Aβ42) | Aβ oligomerization (Aβ) | long-term potentiation (Aβ)
1 | partially inhibits aggregation | O=C(OC[C@H]1O[C@@H](OC(=O)c2cc(O)c(O)c(OC(=O)c3cc(O)c(O)c(O)c3)c2)[C@H](OC(=O)c2cc(O)c(O)c(OC(=O)c3cc(O)c(O)c(O)c3)c2)[C@@H](OC(=O)c2cc(O)c(O)c(OC(=O)c3cc(O)c(O)c(O)c3)c2)[C@@H]1OC(=O)c1cc(O)c(O)c(OC(=O)c2cc(O)c(O)c(O)c2)c1)c1cc(O)c(O)c(OC(=O)c2cc(O)c(O)c(O)c2)c1 [tannic acid] | inhibit A42 aggregation |  | 
2 |  | CCc1nc(Nc2cccc(O)c2)nc(Nc2cccc(O)c2)n1 [RS-0466] |  | block Aβ oligomerization | rescue long-term potentiation
3 |  | NCCc1ccc(O)c(O)c1 [dopamine] | inhibit A42 aggregation |  | 
